Reference: patent US10265287B2, “Methods of reducing triglycerides and LDL-C” (Amarin Pharmaceuticals Ireland Limited, priority 2009, dated 2019)

Assay: Lipid peroxide (LOOH) formation in model membranes, CHOD-iodide colorimetric assay
Type: biochemical
Details: cholesterol-enriched membranes
Method: An experiment was conducted to test EPA, DHA, EPA+DHA with and without with atorvastatin in model membranes enriched with PUFAs and cholesterol at levels that reproduce disease or high CV-risk conditions (i.e. hypercholesterimia). […] EPA and DHA were tested individually at a fixed concentration of 10.0 uM or in combination at 5.65 μM and 4.35 μM (EPA and DHA, respectively), which is a mole ratio of 1.3:1. Separate and combined effects of these agents on lipid peroxide (LOOH) formation were examined at cholesterol-to-phospholipid (C/P) mole ratios of 0.5:1, 1.0:1 and 1.5:1. Levels of lipid hydroperoxides were also measured for EPA, DPH and EPA/DPH in cholesterol-enriched membrane prepared in the absence and presence of atorvastatin. […] To ensure spectrophotometric readings within the optimum absorbance range, sample volumes taken for measurement of lipid peroxide formation were adjusted for length of peroxidation and range between 100 and 10 μl. […] Absorbances were measured against a CHOD blank at 365 nm using a Beckman DU-640 spectrophotometer. The CHOD colorimetric assay is based on the oxidation of iodide (I^-) by lipid hydroperoxides (LOOH) and proceeds according to the following reaction scheme: […]3^- The quantity of triiodide anion (I3^-) liberated in this reaction is directly proportional to the amount of lipid hydroperoxides present in the membrane sample. […]

## CCC=CCC=CCC=CCC=CCC=CCCCC(=O)O [EPA, eicosa-5,8,11,14,17-pentaenoic acid]
EPA and DHA each tested at 10.0 uM
  antioxidant benefit compared with DHA: superior to that observed with DHA
Autoxidation at 37° C., EPA tested at 10.0 uM
  antioxidant benefit (lipid peroxide (LOOH) formation): potent antioxidant benefit
